# Test results taken from patent US20190352663A1 (priority 2018, published 2019).
# Key:
# CsPR1 = format: in vivo, C. sinensis; conditions: 2 mM sprayed on leaves; 48 hours
# CsSAG12-4 = format: in vivo, C. sinensis; conditions: 2 mM sprayed on leaves; 48 hours
# CsSAG12-1 = format: in vivo, C. sinensis; conditions: 2 mM sprayed on leaves; 48 hours; not statistically significant
# CsAALP = format: in vivo, C. sinensis; conditions: 2 mM sprayed on leaves; 48 hours; not statistically significant
# PtoDC3000Δcip1 = format: cell-based, Pseudomonas syringae pv. tomato; conditions: 100 μg/mL
# [1] = biological target: CsRD21a-Flag expressed in N. benthamiana and secreted into the apoplast (Citrus sinensis); test: cell-based or functional assay
# [2] = biological target: papain (Sigma-Aldrich), a PLCP from papaya (papaya) (UniProt P00784); test: cell-based or functional assay
# Sequence of UniProt P00784 (P00784 134-345 limits assumed): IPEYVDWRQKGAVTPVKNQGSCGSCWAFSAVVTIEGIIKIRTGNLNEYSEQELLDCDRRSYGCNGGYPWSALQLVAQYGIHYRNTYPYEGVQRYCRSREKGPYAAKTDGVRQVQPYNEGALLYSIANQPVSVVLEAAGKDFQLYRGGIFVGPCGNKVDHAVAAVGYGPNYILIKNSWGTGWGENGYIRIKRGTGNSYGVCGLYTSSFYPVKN
compound,measurement,setting,value
"O=C(O)c1ccccc1O [SA, salicylic acid]",expression of CsPR1,CsPR1,increase
same,expression of CsSAG12-4,CsSAG12-4,significantly up-regulated
same,expression of CsSAG12-1,CsSAG12-1,trend of increased expression
same,expression of CsAALP,CsAALP,trend of increased expression
papain,inhibitory effect on bacterial growth in artificial media,PtoDC3000Δcip1,not observed
purified recombinant SDE1 protein (tag-free after removal of the His-SUMO tag),"CsRD21a activity (ABPP, ImageJ signal intensity) (% reduction at 0.8 µM SDE1)",[1],9
same,"CsRD21a activity (ABPP, ImageJ signal intensity) (% reduction at 1.6 µM SDE1)",[1],62
same,"CsRD21a activity (ABPP, ImageJ signal intensity) (% reduction at 3.2 µM SDE1)",[1],96
same,DCG-04 labeling of papain (ABPP) (% reduction at 1.6 µM SDE1),[2],53
